Assay results: patent US20090306132A1, “USE OF DERIVATIVES OF NAPHTHALENESULPHONIC OR QUINOLINESULPHONIC ACID IN THE TREATMENT OF VASOPROLIFERATIVE OCULAR DISEASES” (ITALFARMACO, S.A., priority 2006, published 2009)

System: hypoxia-induced hypervascularization of the retina
Test: Inhibition of hypoxia-induced vascularization in a mouse model of retinopathy of prematurity (retinopathy score)
Format: in vivo, C57BL/6J mice
Experimental: A total of thirty C57BL/6J mice were used in a model of retinopathy of prematurity. Seven days after birth, the mice (young) were transferred together with their mothers to a high-oxygen atmosphere (75%) obtained using a mixture of oxygen and air. After 5 days, the animals were transferred to a normal atmosphere. The relative hypoxia produced leads to the release of growth factors which, in turn, cause hypervascularization of the retina. 14-18 hours thereafter, an intravitreous injection of 2 μl of a sterile saline solution of sodium 5-amino-2-naphthalene sulfonate (25 mg/ml) into an eye was performed, and another injection of an equivalent volume of saline solution was performed in the contralateral eye.
Five days after the return to normal atmosphere, the mice were put down by means of an intracardiac injection of dextrane marked with fluorescein (50 mg/ml), the nuclei were removed from both eyes and were fixed for 2 to 6 hours in formaldehyde (4%) at room temperature.
Subsequently, the retina was cut and mounted for observation by fluorescent microscopy, with the vasculature of the retina being assessed. Given that the retina occupies a circular area, in order to perform the assessment, 12 equal radial segments are considered. For the assessment of the central vascularization, the retina is divided into three concentric circles defining three zones: the interior zone around the optic disc, the middle and the exterior zone.
The retinopathy is quantified using a system of multiple assessment in which various morphological parameters associated with retinopathy are assessed: • Presence of a “crest” in each radial segment. One point for each radial segment with the presence of crests. Scoring from 0 to 12. • Presumed extraretinal vascularization, indicated by the presence of groupings of “crest-like” structures. One point for each radial segment with groupings. Scoring from 0 to 12. • Size of the central avascular zone. Scoring from 0 to 3, with 0 meaning an occupation of less than 50% of the interior zone; 1 an occupation of less than 25% of the sum of the interior and middle zone; 2 an occupation of between 25-50% of said sum and 3 an occupation of greater than 50% of same. • Tortuosity of the vessels, measured as a percentage of tortuous vessels with respect to the total. The scoring ranges from 0 to 3, with 0 meaning no tortuosity, 1 if less than ⅓ of the total are tortuous, 2 if between ⅓ and ⅔ are tortuous, and 3 if more than ⅔ are tortuous.
For each eye, a global assessment was obtained consisting of the sum of the points obtained for each parameter.
The statistical analysis of the data was performed subsequently using a Wilcoxon's test.

[1] = intravitreous injection of 2 μl of 25 mg/ml in saline, five days after return to normal atmosphere, N 30

Nc1cccc2cc(S(=O)(=O)[O-])ccc12.[Na+] [ACTIVE, sodium 5-amino-2-naphthalene sulfonate]
Effect seen in histological sections of treated eye versus contralateral placebo eye (in words) (histological sections, FIG. 2): antiangiogenic effect
Global retinopathy assessment (sum of the points obtained for each parameter), Median (intravitreous injection of 2 μl of 25 mg/ml in saline into one eye, saline in contralateral eye, assessed five days after return to normal atmosphere, N 30, p=0.017 vs placebo (Wilcoxon)): 10.5
Global retinopathy assessment (sum of the points obtained for each parameter), Maximum [1]: 16
Global retinopathy assessment (sum of the points obtained for each parameter), Minimum [1]: 3
Effect on neovascularization induced by hypoxia of the retina (in words) (score compared to placebo, FIG. 1): inhibitory effect
